US6369106B1 (Yissum Research Development Company of the Hebrew …, priority 1996, dated 2002)

Key:
[1] = tested on: GSH levels; assay: Brain GSH levels after IP injection (HPLC); type: in vivo, C57BL/6J mice
[2] = Crossing the blood-brain-barrier: compound level in brain extracts by HPLC after IP injection; type: in vivo, C57BL/6J mice; conditions: mice, IP 0.25-4 mg, 15 min after injection
Description: Detection of compound j (referred to in this Example also as CEA) was established using high performance liquid chromatography (HPLC). To this end, CEA was treated with a fluorescent thiolyte reagent (monobromobimane reagent) and analyzed on an HPLC column.
Crossing the blood-brain-barrier: In vivo experiments were carried out on C57BL/6J mice (15 grams) injected IP with compound J. After incubation (15 min, 60 min or 4 hours) the mice were anesthetized with ether and blood samples were drawn. Then mice underwent perfusion with 50 ml of saline, injected into the right ventricle. The levels of compound I in the brain and in the plasma were detected by selective fluorescent labeling using high performance liquid chromatography (HPLC).
Increasing amounts of compound J were injected IP and 15 min later, mice were perfused with saline and compound J levels in the brain extracts were determined by HPLC chromatography (FIG. 5b), as compared to a control, pure, uninjected compound J (FIG. 5a).

[3] = tested on: Neuroblastoma SHSY5Y (NB) cells; assay: Protection from oxidative stress in vitro, neutral red survival assay; type: cell-based; conditions: compound at 0.1 mM, 6-OHDA 0.1-0.25 mM, MPP+ 0.5-2 mM, 24 hours
Description: Protection from oxidative stress in vitro: Neuroblastoma SHSY5Y (NB) cells were maintained in Dulbeco's Modified Eagle's Medium (DMEM), supplemented with 8% FCS and 8% horse serum, penicillin (25 μg/ml), streptomycin (25 μg/ml), 2 mM L-glutamine and 400 μg/ml G418 (Gibco/BRL). For protection experiments cells were subcultured (in 2% serum) to poly-L-lysine-coated 96-well microtiter plates (Nunc), 100 μl of 5×10^5 cells/ml, CEA was applied to the cells in each well and 4 hours later DA, L-dopa (levodopa), 6-OHDA and MPP+ were added for 24 hours.
Survival was assayed by adding neutral red (0.34%, Sigma) to cells in DCCM-1 medium (0.1 ml/well, Bet-Haemek) and incubation for 2 hour at 37° C. The cells were then washed with cold PBS containing 10 mM MgCl2 and the dye was dissolved in 50% ethanol in 50% Somerson buffer (70 mM sodium citrate, 30 mM citric acid, 0.1 N HCl). ELISA reader (590 nm) was used to measure the remaining color intensity.

## CC(=O)NC(CS)C(N)=O (stereo not shown) [compound J]
[1]
  Endogenous GSH levels in mice brain, effect in words: increases endogenous GSH levels
[2]
  Compound level in the brain: concentration-dependent increase
[3]
  Protection of NB cells against toxicity (>50%) of DA, L-dopa, 6-OHDA and MPP+: protect the cells
[3]; listed as Compound J
  Protection of NB cells against toxicity (>50%) of DA, L-dopa, 6-OHDA and MPP+: protect NB cells
